≈ marks a conversion by molar mass, not a printed value. Where “and” joins values, the source holds several entries; their conditions need not be identical. Identical values can stand only once. Like-named read-outs stand apart in the source and are kept apart here.
Assays:
Type in all cases: cell-based
[1] = tested on: Aureobasidium pullulans; assay: Synergy testing of 2-way mixtures, 24 well plates; conditions: A. pullulans
Description: (§1) For synergism testing of the 2-way mixtures 100 ul of each fungicide were filled into the 24 well plates (8 different rates) and 800 ul of 0.3% PDA media containing the spore suspension was added (see above). Different ratios of the 2 fungicide rates were tested at the same time.
(§2) Alternaria tenuissima, Penicillium citrinum, Stachybotrys chartarum, Aspergillus niger and Aureobasidium pullulans were separately cultivated on PDA media to […] sporulation. Spore suspensions were produced for each fungi.
(§3) For the mixtures of different fungicides the synergism was calculated based on the Colby equation, which is described below: […]
(§4) A synergistic effect exists whenever the action of the active ingredient combination of the compound of formula I and one or more compounds of formula II is greater than the sum of the actions of the active ingredients applied individually.
(§5) The fungicidal action to be expected, We, for a given combination of two fungicides can be calculated as follows (see COLBY, S. R. “Calculating synergistic and antagonistic response of herbicide combinations”. Weeds 15, pages 20-22; 1967):
(§6) If the activity actually observed is greater than the expected value We, there is a synergistic effect.
(§7) All rates below are expressed as mg ai/l (i.e. ppm).

[2] = tested on: Aspergillus niger; assay: Synergy testing of 2-way mixtures, 24 well plates; conditions: A. niger
Description: as §1, §2, §3, §4, §5, §6, §7

[3] = tested on: Alternaria tenuissima; assay: Synergy testing of 2-way mixtures, 24 well plates; conditions: A. tenuissima
Description: as §1, §2, §3, §4, §5, §6, §7

[4] = tested on: Stachybotrys chartarum; assay: Liquid culture assay on 24 well plates, solo ai (EC95/MIC); conditions: for EC95: 24° C., 3-6 days; for MIC: Stachybotrys chartarum, read-out: MIC Minimal inhibition concentration
Description: (§8) The following compounds and formulations were used: […]
as §2
(§9) For solo (i.e. single) ai testing the formulated fungicide (100 ul) was filled into the 24 well plates (8 different rates: 100-0.05 mg aiA final volume as described above) and 100 ul distilled water was added. Afterwards 800 ul of 0.3% PDA media was added to the plate. The spore suspension of the specific fungi was added to this media in advance containing approx. 100.000 spores/ml. The 24 well plates were sealed and incubated at 24° C.
(§10) Dependent on the growth properties of each organisms, the evaluation was done after 3 to 6 days, when the surface of the check well was covered with mycelium. The evaluation was performed by assessing the growth of the fungi related to the check growth. The results are expressed as % activity relative to the check (values of 0-100% growth). Afterwards the results were converted in % growth inhibition. EC95 values and also MIC (minimal inhibition concentration) values were derived for each compound.
(§11) For each solo compound a graph was drawn of percentage inhibition against the concentration of the fungicide. […] Also the concentration that gave the minimum inhibition concentration was derived as the MIC value.

[5] = tested on: Aureobasidium pullulans; assay: as above; conditions: for EC95: 24° C., 3-6 days; for MIC: Aureobasidium pullulans, read-out: MIC Minimal inhibition concentration
Description: as §8, §2, §9, §10, §11

[6] = tested on: Aspergillus niger; assay: as above; conditions: for EC95: 24° C., 3-6 days; for MIC: Aspergillus niger, read-out: MIC Minimal inhibition concentration
Description: as §8, §2, §9, §10, §11

[7] = tested on: Alternaria tenuissima; assay: as above; conditions: for EC95: 24° C., 3-6 days; for MIC: Alternaria tenuissima, read-out: MIC Minimal inhibition concentration
Description: as §8, §2, §9, §10, §11

[8] = tested on: Penicillium citrinum; assay: as above; conditions: for EC95: 24° C., 3-6 days; for MIC: Penicillium citrinum, read-out: MIC Minimal inhibition concentration
Description: as §8, §2, §9, §10, §11

[9] = tested on: Stachybotrys chartarum; assay: Synergy testing of 2-way mixtures, 24 well plates; conditions: S. chartarum
Description: as §1, §2, §3, §4, §5, §6, §7

[10] = tested on: Ulocladium chartarum; assay: Agar growth medium petri dish test, visual assessment of fungus-free surface; conditions: after 13 days at 20° C., 'no effect' = less than 50% activity at highest dose rate of 100 mg/l
Description: (§12) A fungal growth medium was made comprising yeast extract (4 g) agar (8 g), magnesium sulphate (0.2 g), sodium nitrate (2.4 g), potassium chloride (0.2 g), potassium dihydrogen orthophosphate (0.6 g), glycerol (8 ml), distilled water (390 ml). Fungicides as set out in Tables 1 to 4 were added at levels of 5000, 100, 10, 1, 0.1 and 0.01 mg fungicide/litre of growth medium to give […] different growth medium compositions for each fungicide. These growth media containing the fungicide were each put into petri dishes.
(§13) Aspergillus versicolor, Ulocladium chartarum, Mucor indicus and Alternaria alternata were separately propagated on Luria agar to suppress sporulation and mycelial plugs were transferred upside down onto the petri dishes containing the growth medium.
(§14) A visual assessment was made of the surface of the petri dishes. The result recorded was the percentage of the surface that remained free of fungus. This was recorded as percentage activity
(§15) For each fungicide, a graph was drawn of percentage activity against concentration of to fungicide in the growth medium. From this graph, the concentrations of fungicide required to achieve 50%, 80% and 95% activity was estimated. These figures are given in the results tables.

[11] = tested on: Alternaria alternata; assay: as above
Description: as §12, §13, §14, §15

[12] = tested on: Mucor indicus; assay: as above; conditions: after 3 days at 25° C., 'no effect' = less than 50% activity at highest dose rate of 100 mg/l
Description: as §12, §13, §14, §15

[13] = tested on: Aspergillus versicolor; assay: as above; conditions: after 19 days at 25° C.
Description: as §12, §13, §14, §15

[14] = CCZ + FDL table, rate (PPZ) 1.6 mg ai/l
[15] = CCZ + FDL table, rate (PPZ) 3.1 mg ai/l
[16] = S. chartarum, rates 0-100 mg ai/l, mean values of n = 5
[17] = A. pullulans, rates 0-100 mg ai/l, mean values of n = 5
[18] = A. niger, rates 0-100 mg ai/l, mean values of n = 5
[19] = A. tenuissima, rates 0-100 mg ai/l, mean values of n = 5
[20] = P. citrinum, rates 0-100 mg ai/l, mean values of n = 5

CC(C1CC1)C(O)(Cn1cncn1)c1ccc(Cl)cc1 (stereo not shown) [Cyproconazole]
inh % (PPZ alone) [1, 14]: 70%
inh % (PPZ alone) [2, 14]: 0%
inh % (PPZ alone) [2, 15]: 0%
inh % (PPZ alone) ([3]; CCZ + FDL table, rate (PPZ) 0.8 mg ai/l): 10%
inh % (PPZ alone) [3, 15]: 30%
EC95 ([4]; S. chartarum): >100 mg ai/l
MIC [4, 16]: > 100 µg/mL
EC95 ([5]; A. pullulans): 6.5 mg ai/l
MIC [5, 17]: 12.5 µg/mL (≈ 42.8 µM)
EC95 ([6]; A. niger): 10.1 mg ai/l
MIC [6, 18]: 12.5 µg/mL (≈ 42.8 µM)
EC95 ([7]; A. tenuissima): 10.2 mg ai/l
MIC [7, 19]: 12.5 µg/mL (≈ 42.8 µM)
EC95 ([8]; P. citrinum): 50 mg ai/l
MIC [8, 20]: 50 µg/mL (≈ 171 µM)

CC1COC(Cn2cncn2)(c2ccc(Oc3ccc(Cl)cc3)cc2Cl)O1 (stereo not shown) [Difenoconazole]
inh % (DFZ alone) ([9]; DFZ 0.8 mg ai/l): 50%
inh % (DFZ alone) ([9]; DFZ 1.6 mg ai/l): 90%
inh % (DFZ alone) ([1]; DFZ 0.2 mg ai/l): 70%
inh % (DFZ alone) ([1]; DFZ 0.8 mg ai/l): 90%
inh % (DFZ alone) ([1]; DFZ 1.6 mg ai/l): 90%
inh % (DFZ alone) ([1]; DFZ 3.1 mg ai/l): 70%
inh % (DFZ alone) ([2]; DFZ 0.05 mg ai/l): 0%
inh % (DFZ alone) ([2]; DFZ 0.2 mg ai/l): 0%
inh % (DFZ alone) ([2]; DFZ 0.8 mg ai/l): 10%
EC95 ([4]; S. chartarum): 2.7 mg ai/l
MIC [4, 16]: 3.1 µg/mL (≈ 7.63 µM)
EC95 ([5]; A. pullulans): 8 mg ai/l
MIC [5, 17]: 12.5 µg/mL (≈ 30.8 µM)
EC95 ([6]; A. niger): 1.4 mg ai/l
MIC [6, 18]: 1.6 µg/mL (≈ 3.94 µM)
EC95 ([7]; A. tenuissima): 0.7 mg ai/l
MIC [7, 19]: 0.8 µg/mL (≈ 1.97 µM)
EC95 ([8]; P. citrinum): 1.7 mg ai/l
MIC [8, 20]: 1.6 µg/mL (≈ 3.94 µM)

N#Cc1c[nH]cc1-c1cccc2c1OC(F)(F)O2 [Fludioxonil]
Concentration required for 80% Activity [10]: 0.28 mg/L
Concentration required for 95% Activity [11]: 0.95 mg/L
Concentration required for 80% Activity [12]: 2.8 mg/L
Concentration required for 80% Activity [13]: 0.81 mg/L
inh % (FDL alone) ([9]; FDL 0.05 mg ai/l): 10%
inh % (FDL alone) ([1]; FDL 0.8 mg ai/l): 10%
inh % (FDL alone) ([1]; FDL 1.6 mg ai/l, listed as FDL): 0% and 10%
inh % (FDL alone) ([1]; FDL 3.1 mg ai/l, listed as FDL): 0% and 10%
inh % (FDL alone) ([1]; FDL 12.5 mg ai/l, listed as FDL): 0% and 10%
inh % (FDL alone) ([1]; FDL 50 mg ai/l, listed as FDL): 0% and 10%
inh % (FDL alone) ([1]; FDL 100 mg ai/l, listed as FDL): 0% and 10%
inh % (FDL alone) ([2]; FDL 0.2 mg ai/l): 30%
inh % (FDL alone) ([2]; FDL 0.8 mg ai/l): 30%
inh % (FDL alone) ([2]; FDL 1.6 mg ai/l): 30%
inh % (FDL alone) ([2]; FDL 3.1 mg ai/l): 30%
inh % (FDL alone) ([2]; FDL 12.5 mg ai/l): 30%
inh % (FDL alone) ([2]; FDL 50 mg ai/l): 30%
inh % (FDL alone) ([2]; FDL 100 mg ai/l): 30%
inh % (FDL alone) ([3]; FDL 0.2 mg ai/l, listed as FDL): 90% and 70%
inh % (FDL alone) ([3]; FDL 0.8 mg ai/l): 90%
EC95 ([4]; S. chartarum): 0.18 mg ai/l
MIC [4]: 0.2 µg/mL (≈ 0.806 µM)
EC95 ([5]; A. pullulans): >100 mg ai/l
MIC [5]: > 100 µg/mL
EC95 ([6]; A. niger): >100 mg ai/l
MIC [6]: > 100 µg/mL
EC95 ([7]; A. tenuissima): 1.3 mg ai/l
MIC [7]: 1.6 µg/mL (≈ 6.45 µM)
EC95 ([8]; P. citrinum): 0.18 mg ai/l
MIC [8]: 0.2 µg/mL (≈ 0.806 µM)

CCCC1COC(Cn2cncn2)(c2ccc(Cl)cc2Cl)O1 (stereo not shown) [Propiconazole]
Concentration required for 80% Activity [10]: 4.2 mg/L
Concentration required for 95% Activity [11]: 16 mg/L
Concentration required for 80% Activity [12]: 61 mg/L
Concentration required for 80% Activity [13]: 9.2 mg/L
inh % (PPZ alone) ([1]; PPZ 3.1 mg ai/l): 70%
inh % (PPZ alone) ([1]; PPZ 12.5 mg ai/l): 70%
inh % (PPZ alone) ([2]; PPZ 0.05 mg ai/l): 0%
inh % (PPZ alone) ([2]; PPZ 0.2 mg ai/l): 0%
inh % (PPZ alone) ([2]; PPZ 0.8 mg ai/l): 0%
inh % (PPZ alone) ([2]; PPZ 1.6 mg ai/l): 30%
inh % (PPZ alone) ([3]; PPZ 0.8 mg ai/l): 0%
inh % (PPZ alone) ([3]; PPZ 1.6 mg ai/l): 10%
inh % (PPZ alone) ([3]; PPZ 3.1 mg ai/l): 30%
EC95 ([4]; S. chartarum): >100 mg ai/l
MIC [4, 16]: > 100 µg/mL
EC95 ([5]; A. pullulans): 36 mg ai/l
MIC [5, 17]: 50 µg/mL (≈ 146 µM)
EC95 ([6]; A. niger): 3 mg ai/l
MIC [6, 18]: 3.1 µg/mL (≈ 9.06 µM)
EC95 ([7]; A. tenuissima): 10.1 mg ai/l
MIC [7, 19]: 12.5 µg/mL (≈ 36.5 µM)
EC95 ([8]; P. citrinum): 1.5 mg ai/l
MIC [8, 20]: 1.6 µg/mL (≈ 4.68 µM)

c1ccc2[nH]c(-c3cscn3)nc2c1 [Thiabendazole]
Concentration required for 80% Activity [10]: No effect
Concentration required for 95% Activity [11]: >5000 mg/L
Concentration required for 80% Activity [12]: No effect
Concentration required for 80% Activity [13]: 6.9 mg/L
